Assay [1] has as its target Luciferin 4-monooxygenase (Photinus pyralis, UniProt P08659). Description: inhibition of purified Photinus pyralis luciferase – biochemical, luminescence, dose response (AID 1891).
The nature of assay [2]: Luminescence Cell-Based Dose Confirmation HTS to Identify Inhibitors of Platelet Dense Granule Release. [Related pubchem assays: 1663 (Primary HTS), 1678 (Summary of Project)]. It counts as functional.
Assay [3] has as its target T1, Corticotropin-releasing factor receptor 2/Corticotropin-releasing factor-binding protein (Homo sapiens, UniProt P24387+Q13324).
T1 sequence (Q13324 whole entry): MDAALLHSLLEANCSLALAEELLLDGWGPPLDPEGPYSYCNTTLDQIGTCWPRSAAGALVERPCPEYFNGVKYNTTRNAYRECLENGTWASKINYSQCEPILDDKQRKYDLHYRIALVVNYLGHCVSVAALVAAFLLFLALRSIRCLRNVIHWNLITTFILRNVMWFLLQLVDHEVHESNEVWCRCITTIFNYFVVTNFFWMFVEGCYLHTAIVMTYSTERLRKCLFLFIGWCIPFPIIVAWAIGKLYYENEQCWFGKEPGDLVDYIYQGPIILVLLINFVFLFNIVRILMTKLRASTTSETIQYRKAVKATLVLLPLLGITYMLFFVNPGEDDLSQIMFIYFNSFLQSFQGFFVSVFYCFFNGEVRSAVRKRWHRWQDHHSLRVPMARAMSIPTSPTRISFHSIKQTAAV
T1 sequence (P24387 whole entry): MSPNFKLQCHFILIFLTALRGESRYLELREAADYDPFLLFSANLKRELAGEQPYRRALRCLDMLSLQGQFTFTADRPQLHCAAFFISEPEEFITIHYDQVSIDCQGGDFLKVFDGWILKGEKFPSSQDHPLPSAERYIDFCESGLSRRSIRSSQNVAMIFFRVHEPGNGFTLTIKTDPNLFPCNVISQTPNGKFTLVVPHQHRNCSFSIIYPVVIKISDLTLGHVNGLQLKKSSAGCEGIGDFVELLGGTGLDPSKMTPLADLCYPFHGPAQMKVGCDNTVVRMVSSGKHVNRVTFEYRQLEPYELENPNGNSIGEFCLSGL
Description: Dose Response confirmation of uHTS hits for small molecule antagonists of the CRF-binding protein and CRF-R2 receptor complex. It is filed as functional. Particulars: read-out: IC50_Mean.

In assay [4] the target is T1, Corticotropin-releasing factor receptor 2/Corticotropin-releasing factor-binding protein. Description: activators of CRF receptor 2 with binding protein – uHTS hits, confirmation (AID 602473). It is filed as functional. The conditions noted are these: read-out: EC50_Mean.
Assay [5] is described as follows: P. falciparum Dd2 growth inhibitors, dose response, SYBR Green, cherry-picked samples (AID 1159567). It is filed as functional, cell-based.
Assay [6] addresses T2, Heat shock factor protein 1 (Mus musculus, UniProt P38532).
T2 sequence (P38532 whole entry): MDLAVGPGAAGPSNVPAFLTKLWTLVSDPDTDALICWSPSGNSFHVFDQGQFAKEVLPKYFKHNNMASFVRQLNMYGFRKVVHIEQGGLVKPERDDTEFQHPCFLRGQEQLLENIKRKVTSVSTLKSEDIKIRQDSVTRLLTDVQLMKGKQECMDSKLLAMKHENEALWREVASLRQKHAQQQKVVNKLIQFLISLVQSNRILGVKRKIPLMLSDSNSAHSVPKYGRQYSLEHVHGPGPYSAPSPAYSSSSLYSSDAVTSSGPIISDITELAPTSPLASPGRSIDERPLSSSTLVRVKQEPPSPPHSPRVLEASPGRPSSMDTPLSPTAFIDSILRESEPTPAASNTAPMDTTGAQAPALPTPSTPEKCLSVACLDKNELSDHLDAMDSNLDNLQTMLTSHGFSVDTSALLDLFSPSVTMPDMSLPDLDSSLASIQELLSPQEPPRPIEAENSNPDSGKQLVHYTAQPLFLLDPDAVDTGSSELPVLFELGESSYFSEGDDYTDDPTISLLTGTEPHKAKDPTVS
The assay is described as follows: decrease of HSF1-responsive luciferase luminescence – cell-based, NIH3T3, dose retest, confirmation (AID 2382).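 Note: NIH3T3 fibroblasts with HSF1-driven luciferase reporter stressed by proteasome inhibitor MG132; luminescence from HSF1-driven luciferase expression after 8 hours of MG132 stress.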 It counts as functional.

Another assay concerns the target Cytochrome P450 2C19 (Homo sapiens, UniProt P33261). Description: Cytochrome panel assay with activity outcomes. Panel member name: p450-cyp2c19 Compounds with AC50 equal or less than 10 uM are considered active. It is filed as functional. Particulars: read-out: AC50.
A further assay has as its target T3, Cytochrome P450 1A2 (Homo sapiens, UniProt P05177).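 Note: PubChem cytochrome P450 panel assay, CYP1A2 panel member.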
T3 sequence (P05177 whole entry): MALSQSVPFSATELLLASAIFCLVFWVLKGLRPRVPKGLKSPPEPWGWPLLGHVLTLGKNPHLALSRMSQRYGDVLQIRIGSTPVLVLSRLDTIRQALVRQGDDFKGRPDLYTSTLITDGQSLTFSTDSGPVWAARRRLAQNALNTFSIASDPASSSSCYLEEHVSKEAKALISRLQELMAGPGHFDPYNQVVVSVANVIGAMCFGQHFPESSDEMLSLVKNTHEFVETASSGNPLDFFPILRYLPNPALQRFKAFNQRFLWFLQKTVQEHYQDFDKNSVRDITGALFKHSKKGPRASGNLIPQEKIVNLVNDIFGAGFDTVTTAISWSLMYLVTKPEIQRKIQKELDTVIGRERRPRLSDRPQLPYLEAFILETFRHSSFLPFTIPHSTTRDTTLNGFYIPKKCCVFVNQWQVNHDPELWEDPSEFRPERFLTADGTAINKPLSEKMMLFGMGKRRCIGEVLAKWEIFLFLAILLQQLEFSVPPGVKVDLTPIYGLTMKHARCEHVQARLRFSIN

In the next assay the target is Cytochrome P450 3A4 (Homo sapiens, UniProt P08684).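 Note: CYP3A4 tested as one member of a cytochrome P450 panel screen.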
Cytochrome P450 3A4, sequence (P08684 whole entry): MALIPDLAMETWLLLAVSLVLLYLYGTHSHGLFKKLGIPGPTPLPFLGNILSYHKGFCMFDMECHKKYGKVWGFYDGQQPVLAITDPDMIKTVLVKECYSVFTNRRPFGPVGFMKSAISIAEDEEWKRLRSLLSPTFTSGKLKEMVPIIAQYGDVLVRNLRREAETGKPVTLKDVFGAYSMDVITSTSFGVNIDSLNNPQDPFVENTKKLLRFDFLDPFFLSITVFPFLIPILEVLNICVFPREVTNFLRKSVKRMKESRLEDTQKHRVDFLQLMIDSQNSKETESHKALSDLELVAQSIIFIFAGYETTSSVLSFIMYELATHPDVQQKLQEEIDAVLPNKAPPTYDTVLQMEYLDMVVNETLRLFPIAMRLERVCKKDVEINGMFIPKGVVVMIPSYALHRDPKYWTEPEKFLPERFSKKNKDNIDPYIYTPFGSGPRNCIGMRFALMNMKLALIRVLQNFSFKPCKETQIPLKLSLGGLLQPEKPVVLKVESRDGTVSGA
The target in the next assay is Cytochrome P450 2C9 (Homo sapiens, UniProt P11712).
Cytochrome P450 2C9, sequence (P11712 whole entry): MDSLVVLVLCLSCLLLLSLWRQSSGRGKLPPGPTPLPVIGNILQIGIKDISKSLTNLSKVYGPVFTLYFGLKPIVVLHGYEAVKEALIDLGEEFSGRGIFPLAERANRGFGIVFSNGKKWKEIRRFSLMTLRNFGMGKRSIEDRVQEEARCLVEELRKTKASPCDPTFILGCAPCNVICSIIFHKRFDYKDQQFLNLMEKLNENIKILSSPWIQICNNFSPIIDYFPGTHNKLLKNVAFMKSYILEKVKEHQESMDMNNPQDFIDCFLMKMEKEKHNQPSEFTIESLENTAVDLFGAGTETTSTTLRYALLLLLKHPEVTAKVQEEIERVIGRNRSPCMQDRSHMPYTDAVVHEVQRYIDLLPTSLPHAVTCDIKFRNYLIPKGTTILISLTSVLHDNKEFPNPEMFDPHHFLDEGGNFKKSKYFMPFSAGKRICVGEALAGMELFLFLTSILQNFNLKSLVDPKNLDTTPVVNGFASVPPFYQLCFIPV

Structures are written as SMILES. Active and inactive are the calls of the source. Some results are limits rather than exact numbers.

Cytochrome P450 2C19, sequence (P33261 whole entry): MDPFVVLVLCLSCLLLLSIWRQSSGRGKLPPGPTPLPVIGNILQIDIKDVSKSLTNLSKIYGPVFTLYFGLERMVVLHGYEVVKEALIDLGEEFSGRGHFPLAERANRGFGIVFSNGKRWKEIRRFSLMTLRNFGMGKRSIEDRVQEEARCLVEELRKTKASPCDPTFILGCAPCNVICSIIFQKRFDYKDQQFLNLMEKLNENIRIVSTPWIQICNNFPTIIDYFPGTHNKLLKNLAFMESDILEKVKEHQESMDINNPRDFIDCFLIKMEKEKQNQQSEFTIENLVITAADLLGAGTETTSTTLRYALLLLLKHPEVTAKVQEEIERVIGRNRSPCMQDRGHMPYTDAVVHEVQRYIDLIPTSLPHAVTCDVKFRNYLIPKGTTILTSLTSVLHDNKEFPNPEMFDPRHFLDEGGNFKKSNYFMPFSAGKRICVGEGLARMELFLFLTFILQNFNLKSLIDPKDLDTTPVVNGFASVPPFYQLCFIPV
Luciferin 4-monooxygenase, sequence (P08659 whole entry): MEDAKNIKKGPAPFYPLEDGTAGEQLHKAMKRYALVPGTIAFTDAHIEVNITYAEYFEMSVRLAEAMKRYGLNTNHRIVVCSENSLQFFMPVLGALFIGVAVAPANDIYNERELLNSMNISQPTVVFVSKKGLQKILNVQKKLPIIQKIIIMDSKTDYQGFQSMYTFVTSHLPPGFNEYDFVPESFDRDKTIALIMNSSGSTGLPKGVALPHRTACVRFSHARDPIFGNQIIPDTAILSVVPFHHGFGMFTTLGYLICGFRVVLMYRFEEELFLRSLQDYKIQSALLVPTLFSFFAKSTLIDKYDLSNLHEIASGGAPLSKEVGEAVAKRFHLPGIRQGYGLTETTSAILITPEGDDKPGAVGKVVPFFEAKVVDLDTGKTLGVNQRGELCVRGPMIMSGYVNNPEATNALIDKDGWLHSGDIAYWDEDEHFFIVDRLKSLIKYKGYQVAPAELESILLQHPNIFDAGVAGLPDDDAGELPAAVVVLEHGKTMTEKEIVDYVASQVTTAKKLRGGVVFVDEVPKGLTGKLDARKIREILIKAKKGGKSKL

For the compound `N#Cc1nc(Cc2ccccc2)oc1N1CCCC1`, the results for the EC50 in [1] and in assay [2] were 18.5 µM (active) and > 112 µM (not active), respectively.

`CC1=C(C(=O)OC(C)(C)C)C(c2cccc3ccccc23)NC(=O)N1` (stereo unspecified): the IC50 in assay [3] was > 47.1 µM (inactive). Besides, the EC50 in assay [4] was > 53 µM (inactive).

In the case of `CC(Cc1ccccc1)Nc1ncnc2c1ncn2C1OC(CO)C(O)C1O` (stereo unspecified), the EC50 is > 112 µM (not active) in [1] and < 0.701 µM (active) in assay [2].

Take `Cc1cccc(C(=N)NOC(=O)c2ccc(Cl)cc2Cl)c1`: the EC50 was 0.761 µM (active) in [1] and 3.2 µM (active) in assay [2].

For `COc1ccccc1S(=O)(=O)N[C@H]1CC[C@@H](CCn2cc(C3CCCC3)nn2)O[C@@H]1CO`, the half-maximal activity concentration (AC50) in assay [5] was 11.5 µM (active).

With `C[C@H]1CN([C@@H](C)CO)C(=O)c2cc(NC(=O)Cc3cn(C)c4ccccc34)ccc2O[C@H]1CN(C)S(=O)(=O)c1ccccc1`, in assay [5], the concentration at half-maximal activity (AC50) is 4.86 µM (active).

`Cc1cccc(CN2CCNC2=O)c1`: the EC50 in [6] is given as > 195 µM (not active).

With `Cc1nc2oc3c(NCC4CCCO4)ncnc3c2c2c1COC(C)(C)C2` (stereo unspecified), the EC50 in assay [1] and in assay [2] was > 112 µM (not active) each time.

In the case of `CCc1nn(CC(=O)N2CCC(C(N)=O)CC2)c(=O)c2cc3occc3n12`, the EC50 in assay [6] is on record as > 195 µM (not active).

As for `Cc1ccccc1Nc1scc(-c2ccc(Br)cc2)[n+]1-c1ccccc1C`, the IC50 in [3] is > 47.1 µM (inactive). Also, in assay [4], the EC50 is > 53 µM (inactive).

Turning to `Cn1nc(N)c2ncc(C(Cl)(Cl)Cl)nc21`, the IC50 in [3] is > 47.1 µM (inactive). Besides, the EC50 in [4] is > 53 µM (inactive).

Regarding `Fc1ccccc1OCCCCCCN1CCCC1`, the AC50 at Cytochrome P450 2C19 was 39.8 µM (inconclusive); at Cytochrome P450 1A2 it was 17.8 µM (inconclusive); at Cytochrome P450 3A4, 17.8 µM (inconclusive); at Cytochrome P450 2C9 it was 39.8 µM (inconclusive).

`CCCN(C(=O)CSc1n[nH]c(-c2ccc(OC)cc2)n1)c1c(N)n(Cc2ccccc2)c(=O)[nH]c1=O`: the IC50 in [3] was > 47.1 µM (inactive). In [4], the EC50 was > 53 µM (inactive).

Regarding `O=C(Nc1cccc(O)c1)c1noc2c1CCc1ccccc1-2`, the figures for the EC50 in [1] and in assay [2] were 1.03 µM (active) and 8.29 µM (active), respectively.

With `Cc1ccc(/C=C/c2nnc(-c3ccc(C)cc3)o2)cc1`, the AC50 on Cytochrome P450 1A2 was 4.47 µM (inconclusive); at Cytochrome P450 3A4, 10 µM (inconclusive); at Cytochrome P450 2C9 it was 5.62 µM (inconclusive).

Turning to `COc1ccc2[nH]cc(CCN=C(S)NC3CCCC3)c2c1`, the IC50 in assay [3] was > 47.1 µM (inactive). In addition, in assay [4], the EC50 is > 53 µM (inactive).

In the case of `CCOC(=O)CSc1nnc(-c2ccccc2)c(-c2ccccc2)n1`, in [6], the EC50 is on record as > 195 µM (not active).

Turning to `CN(C)c1c([N+](=O)[O-])ncn1C`, the IC50 in assay [3] was > 47.1 µM (inactive). Further, the EC50 in assay [4] is > 53 µM (inactive).

For `CC(C)(C)[S+]([O-])N1Cc2cc(C(=O)N[C@@H]3CCN(Cc4ccccc4)C3)nc(-c3cccc(C#CCC4CCCC4)c3)c2[C@H]1CCO` (stereo partly specified), in assay [5], the half-maximal activity concentration (AC50) is 3.75 µM (active).

As for `Cc1cccc(Nc2ccncc2S(=O)(=O)NC(=O)NC(C)C)c1` [TORSEMIDE], in assay [6], the EC50 is listed as > 195 µM (not active). For the same compound, the AC50 at Cytochrome P450 2C9 is 12.6 µM (inconclusive).

For `Cc1ccc(S(=O)(=O)NC(=NCc2ccccc2)c2ccc(F)cc2)cc1`, the EC50 in [6] was > 195 µM (not active).

For the compound `CCCCn1c(=O)n(CC(=O)Nc2c(CC)cccc2CC)c(=O)c2c1nc(CO)n2CCC`, the EC50 in assay [6] is > 195 µM (not active).

`O=C(Nc1cccc(F)c1)C1CCN(C(=O)Cc2ccccc2)CC1`: the EC50 in assay [1] and in assay [2] was > 112 µM (not active) throughout.

For `COc1ccc(N2C(=O)C(C)(C)C2c2c(O)ccc3ccccc23)cc1` (stereo unspecified), the EC50 in assay [6] is recorded as > 195 µM (not active).

For `Cc1ccc(S(=O)(=O)N2CCN(C(=O)c3c(-c4ccccc4)noc3C)CC2)c(C)c1`, in assay [6], the EC50 was > 195 µM (not active).

For `O=C(Cn1c(O)c(N=NC(=O)c2ccncc2)c2ccccc21)Nc1ccccc1`, the EC50 in assay [1] and in assay [2] was > 112 µM (not active) in each case.

On to `COc1ccc(Br)cc1CNC(=O)c1ccc2c(c1)N(C)CCS2`, for which the EC50 in [1] and in assay [2] was > 112 µM (not active) in each case.

Take `Cn1c(=O)c(CCc2ccccc2)nc2cnc(Nc3ccccc3)nc21`: the AC50 on Cytochrome P450 1A2 was 1.26 µM (inconclusive); at Cytochrome P450 3A4, 12.6 µM (inconclusive); on Cytochrome P450 2C9, 10 µM (inconclusive).

For the compound `CCOc1ccc(CN2CCN(CCCn3cccn3)CC2CCO)cc1` (stereo unspecified), the EC50 was > 112 µM (not active) in assay [1] and 83.2 µM (active) in assay [2].

Consider `CCn1c(C(=O)O)c(CC(=O)Nc2ccccc2OC)c2ccccc21`, for which the EC50 in assay [6] is > 195 µM (not active).

As for `Nc1nc(NCc2ccco2)nc(NC2CCCCC2)c1[N+](=O)[O-]`, in assay [6], the EC50 is recorded as > 195 µM (not active).

Regarding `CCN(CCO)Cc1csc2cccc(Br)c12`, on Cytochrome P450 2C19, the half-maximal activity concentration (AC50) was 22.4 µM (inconclusive). In addition, the IC50 in assay [3] was > 47.1 µM (inactive). In addition, the EC50 in [4] is > 53 µM (inactive).

As to `COc1ccc(C2=NN(C)/C(=N\Cc3ccccc3)SC2)cc1`, the IC50 in assay [3] was > 47.1 µM (inactive). In addition, in assay [4], the EC50 was > 53 µM (inactive).

Regarding `Nc1cc(OC(=O)c2ccco2)nn1S(=O)(=O)c1ccc(F)cc1`, the IC50 in [3] was 34.8 µM (active). In addition, the EC50 in [4] is > 53 µM (inactive).

For the compound `O=C1C2CCCN2c2ccc(S(=O)(=O)N3CCOCC3)cc2N1Cc1cccc(C(F)(F)F)c1` (stereo unspecified), the EC50 in [6] was > 195 µM (not active). Further, at Cytochrome P450 2C19, the concentration at half-maximal activity (AC50) was 3.55 µM (inconclusive).

Regarding `COc1ccc(CN2CC3(C2)CN(Cc2ccc4c(c2)OCO4)[C@H](CO)c2[nH]c4cc(OC)ccc4c23)cc1`, the AC50 in [5] is 3.49 µM (active).

With `CCOc1cc(/C=N/NC(=O)c2cccc(S(=O)(=O)N3CCOCC3)c2)ccc1OCC(=O)N(C)C`, the EC50 in assay [6] is reported as > 195 µM (not active).

Take `Cc1nn(-c2ccccc2)c(-c2ccccc2)c1C(=O)O`: the AC50 is 5.01 µM (inconclusive) at Cytochrome P450 2C19, 25.1 µM (inconclusive) at Cytochrome P450 1A2 and 1.12 µM (inconclusive) at Cytochrome P450 2C9.

Consider `CC(=O)Nc1ccc(NC(=O)C(C)OC(=O)C2CCCCC2)cc1` (stereo unspecified), for which the IC50 in assay [3] is > 47.1 µM (inactive). Moreover, in [4], the EC50 was > 53 µM (inactive).

Turning to `CCCCNC(=O)CN=C(S)N(Cc1ccccc1)Cc1cccs1`, in [6], the EC50 is > 195 µM (not active).

Broadly, the AC50 is the concentration giving half of the maximal activity seen.

Source of the values: ChEMBL document CHEMBL1201862, “PubChem BioAssay data set” (2004).
